Tests used:
[1] = tested on: H929 cells; assay: Cell viability assay (Cell TiterGlo); type: cell-based; details: Homo sapiens, NCI-H929, 24 hours at 37° C., Cell TiterGlo luminescence
Experimental: The cell viability assay was performed using H929 cells. Cells were seeded in 96-well plates at 10,000 cells/well and, after overnight incubation, treated with compounds in a dose response of 3-fold dilutions from 10 μM to 0.005 μM ([…], 0.1% final DMSO concentration). After 24 hours at 37° C., cell viability was measured using Cell TiterGlo reagent (Promega) with a luminescence reader.

[2] = target: CDK9/Cyclin T1 (Homo sapiens (Human), UniProt P50750); assay: CDK9 enzyme assay (LANCE ULight TR-FRET kinase assay); type: biochemical; details: 1000 μM ATP, 100 nM ULight MBP, kinase reaction 1 hour
Sequence of CDK9/Cyclin T1 (P50750 whole entry): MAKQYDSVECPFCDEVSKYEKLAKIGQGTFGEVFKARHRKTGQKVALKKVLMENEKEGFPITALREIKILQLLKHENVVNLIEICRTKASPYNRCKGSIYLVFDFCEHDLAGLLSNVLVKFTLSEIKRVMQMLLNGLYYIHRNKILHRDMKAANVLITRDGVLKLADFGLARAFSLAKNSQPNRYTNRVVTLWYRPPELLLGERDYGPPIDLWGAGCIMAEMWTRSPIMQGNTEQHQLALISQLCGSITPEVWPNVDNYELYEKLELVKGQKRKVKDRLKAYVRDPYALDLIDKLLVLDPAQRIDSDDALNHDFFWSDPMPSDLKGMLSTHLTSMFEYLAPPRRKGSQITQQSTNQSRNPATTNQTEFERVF
Sequence of CDK9/Cyclin T1 (O60563 whole entry partner): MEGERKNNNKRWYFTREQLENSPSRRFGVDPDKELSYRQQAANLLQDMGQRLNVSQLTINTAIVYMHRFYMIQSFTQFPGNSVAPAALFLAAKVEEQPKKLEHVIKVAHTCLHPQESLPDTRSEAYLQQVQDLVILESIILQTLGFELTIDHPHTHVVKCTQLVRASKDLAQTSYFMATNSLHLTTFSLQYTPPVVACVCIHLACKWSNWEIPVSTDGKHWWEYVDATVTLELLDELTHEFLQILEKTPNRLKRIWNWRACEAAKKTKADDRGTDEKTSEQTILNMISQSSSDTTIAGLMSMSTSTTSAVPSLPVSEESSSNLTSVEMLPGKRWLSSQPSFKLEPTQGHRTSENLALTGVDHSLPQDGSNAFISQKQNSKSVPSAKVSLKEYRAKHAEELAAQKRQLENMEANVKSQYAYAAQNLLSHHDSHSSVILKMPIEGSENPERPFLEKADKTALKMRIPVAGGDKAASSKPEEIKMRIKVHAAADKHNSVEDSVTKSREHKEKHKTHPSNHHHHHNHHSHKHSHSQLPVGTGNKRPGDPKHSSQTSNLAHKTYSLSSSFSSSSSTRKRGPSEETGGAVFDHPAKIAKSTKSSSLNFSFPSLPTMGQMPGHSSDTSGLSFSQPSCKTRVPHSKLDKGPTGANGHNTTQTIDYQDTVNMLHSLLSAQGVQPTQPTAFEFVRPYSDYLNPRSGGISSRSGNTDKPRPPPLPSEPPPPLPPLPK
In short: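 Human CDK9/Cyclin T1 phosphorylating 100 nM ULight-MBP with 1000 μM ATP in HEPES/MgCl2 buffer, 1 h reaction. Stopped with 20 mM EDTA plus 0.5 nM Eu anti-phospho-MBP antibody, incubated 1 h, read by TR-FRET (ex 320 nm, em 615/665 nm).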

SMILES	IC50 [1]	IC50 [2]
CN1Cc2c(C3=CCN(CC(=O)N4CC[C@H](O)C4)CC3)[nH]c3ncc(F)c(c23)-c2cc(F)ccc21 [Example 73, 2-[4-(1,10-difluoro-7-methyl-6,7-dihydro-4H-3,4,7-triazadibenzo[cd,f]azulen-5-yl)-3,6-dihydropyridin-1(2H)-yl]-1-[(3S)-3-hydroxypyrrolidin-1-yl]ethanone]	20 nM	52 nM
CN1Cc2c(C3=CCN(CC(=O)N4CC(CO)C4)CC3)[nH]c3ncc(F)c(c23)-c2cc(F)ccc21 [Example 74, 2-[4-(1,10-difluoro-7-methyl-6,7-dihydro-4H-3,4,7-triazadibenzo[cd,f]azulen-5-yl)-3,6-dihydropyridin-1(2H)-yl]-1-[3-(hydroxymethyl)azetidin-1-yl]ethanone]	21 nM	89 nM
CN1Cc2c(C3=CCN(CC(=O)N4CCC[C@@H]4CO)CC3)[nH]c3ncc(F)c(c23)-c2cc(F)ccc21 [Example 75, 2-[4-(1,10-difluoro-7-methyl-6,7-dihydro-4H-3,4,7-triazadibenzo[cd,f]azulen-5-yl)-3,6-dihydropyridin-1(2H)-yl]-1-[(2R)-2-(hydroxymethyl)pyrrolidin-1-yl]ethanone]	8 nM	51 nM
CNC(=O)N1CC2C=C(c3[nH]c4nccc5c4c3CN(C)c3ccc(F)cc3-5)CC2C1 (centres unmarked) [Example 76, 5-(10-fluoro-7-methyl-6,7-dihydro-4H-3,4,7-triazadibenzo[cd,f]azulen-5-yl)-N-methyl-3,3a,4,6a-tetrahydrocyclopenta[c]pyrrole-2(1H)-carboxamide]	22 nM	41 nM
CN(C)C(=O)CN1CC2C=C(c3[nH]c4nccc5c4c3CN(C)c3ccc(F)cc3-5)CC2C1 (centres unmarked) [Example 77, 2-[5-(10-fluoro-7-methyl-6,7-dihydro-4H-3,4,7-triazadibenzo[cd,f]azulen-5-yl)-3,3a,4,6a-tetrahydrocyclopenta[c]pyrrol-2(1H)-yl]-N,N-dimethylacetamide]	78 nM	46 nM
CN1Cc2c(C3=CC4CN(S(C)(=O)=O)CC4C3)[nH]c3nccc(c23)-c2cc(F)ccc21 (centres unmarked) [Example 78, 10-fluoro-7-methyl-5-[2-(methylsulfonyl)-1,2,3,3a,4,6a-hexahydrocyclopenta[c]pyrrol-5-yl]-6,7-dihydro-4H-3,4,7-triazadibenzo[cd,f]azulene]	30 nM	62 nM
CN1Cc2c(C3=C[C@H]4CC[C@@H](C3)N4CC(=O)N3CCC[C@H]3CO)[nH]c3nccc(c23)-c2cc(F)ccc21 [Example 79, 2-[(1R,5S)-3-(10-fluoro-7-methyl-6,7-dihydro-4H-3,4,7-triazadibenzo[cd,f]azulen-5-yl)-8-azabicyclo[3.2.1]oct-2-en-8-yl]-1-[(2S)-2-(hydroxymethyl)pyrrolidin-1-yl]ethanone]	49 nM	72 nM
CN1Cc2c(C3=C[C@H]4CC[C@@H](C3)N4CC(=O)N3CC(O)C3)[nH]c3nccc(c23)-c2cc(F)ccc21 [Example 80, 2-[(1R,5S)-3-(10-fluoro-7-methyl-6,7-dihydro-4H-3,4,7-triazadibenzo[cd,f]azulen-5-yl)-8-azabicyclo[3.2.1]oct-2-en-8-yl]-1-(3-hydroxyazetidin-1-yl)ethanone]	190 nM	97 nM
CN1Cc2c(-c3ccc(CC(=O)O)cc3)[nH]c3nccc(c23)-c2cc(F)ccc21 [Example 81, [4-(10-fluoro-7-methyl-6,7-dihydro-4H-3,4,7-triazadibenzo[cd,f]azulen-5-yl)phenyl]acetic acid]	790 nM	68 nM
CN1Cc2c(-c3cccc(CC(=O)O)c3)[nH]c3nccc(c23)-c2cc(F)ccc21 [Example 82, [3-(10-fluoro-7-methyl-6,7-dihydro-4H-3,4,7-triazadibenzo[cd,f]azulen-5-yl)phenyl]acetic acid]	4700 nM	100 nM
CN(CC(O)CO)C(=O)CN1[C@H]2CC[C@@H]1C=C(c1[nH]c3nccc4c3c1CN(C)c1ccc(F)cc1-4)C2 (stereo partly drawn) [Example 83, N-(2,3-dihydroxypropyl)-2-[(1R,5S)-3-(10-fluoro-7-methyl-6,7-dihydro-4H-3,4,7-triazadibenzo[cd,f]azulen-5-yl)-8-azabicyclo[3.2.1]oct-2-en-8-yl]-N-methylacetamide]	140 nM	140 nM

Now from value to compound:

IC50 [1]	IC50 [2]	SMILES
180 nM	94 nM	CN1Cc2c(C3=CC4CN(CC(=O)N5CC(O)C5)CC4C3)[nH]c3nccc(c23)-c2cc(F)ccc21 (centres unmarked) [Example 84, 2-[5-(10-fluoro-7-methyl-6,7-dihydro-4H-3,4,7-triazadibenzo[cd,f]azulen-5-yl)-3,3a,4,6a-tetrahydrocyclopenta[c]pyrrol-2(1H)-yl]-1-(3-hydroxyazetidin-1-yl)ethanone]
250 nM	99 nM	CN(CC(O)CO)C(=O)CN1CC2C=C(c3[nH]c4nccc5c4c3CN(C)c3ccc(F)cc3-5)CC2C1 (centres unmarked) [Example 85, N-(2,3-dihydroxypropyl)-2-[5-(10-fluoro-7-methyl-6,7-dihydro-4H-3,4,7-triazadibenzo[cd,f]azulen-5-yl)-3,3a,4,6a-tetrahydrocyclopenta[c]pyrrol-2(1H)-yl]-N-methylacetamide]
94 nM	43 nM	CN(CCO)C(=O)CN1CC2C=C(c3[nH]c4nccc5c4c3CN(C)c3ccc(F)cc3-5)CC2C1 (centres unmarked) [Example 86, 2-[5-(10-fluoro-7-methyl-6,7-dihydro-4H-3,4,7-triazadibenzo[cd,f]azulen-5-yl)-3,3a,4,6a-tetrahydrocyclopenta[c]pyrrol-2(1H)-yl]-N-(2-hydroxyethyl)-N-methylacetamide]
100 nM	90 nM	CN1Cc2c(C3=CCCNCC3)[nH]c3nccc(c23)-c2cc(F)ccc21 [Example 87, 10-fluoro-7-methyl-5-(2,3,6,7-tetrahydro-1H-azepin-4-yl)-6,7-dihydro-4H-3,4,7-triazadibenzo[cd,f]azulene]
150 nM	150 nM	CN(C)C(=O)CN1CCC=C(c2[nH]c3nccc4c3c2CN(C)c2ccc(F)cc2-4)CC1 [Example 88, 2-[4-(10-fluoro-7-methyl-6,7-dihydro-4H-3,4,7-triazadibenzo[cd,f]azulen-5-yl)-2,3,6,7-tetrahydro-1H-azepin-1-yl]-N,N-dimethylacetamide]
230 nM	120 nM	CN1Cc2c(C3=CCCN(S(C)(=O)=O)CC3)[nH]c3nccc(c23)-c2cc(F)ccc21 [Example 89, 10-fluoro-7-methyl-5-[1-(methylsulfonyl)-2,3,6,7-tetrahydro-1H-azepin-4-yl]-6,7-dihydro-4H-3,4,7-triazadibenzo[cd,f]azulene]
1900 nM	170 nM	CN1Cc2c(C3=CCCN(CC(=O)O)CC3)[nH]c3nccc(c23)-c2cc(F)ccc21 [Example 90, [4-(10-fluoro-7-methyl-6,7-dihydro-4H-3,4,7-triazadibenzo[cd,f]azulen-5-yl)-2,3,6,7-tetrahydro-1H-azepin-1-yl]acetic acid]
220 nM	180 nM	CN1Cc2c(C3=CCCN(CC(=O)N4CC(O)C4)CC3)[nH]c3nccc(c23)-c2cc(F)ccc21 [Example 91, 2-[4-(10-fluoro-7-methyl-6,7-dihydro-4H-3,4,7-triazadibenzo[cd,f]azulen-5-yl)-2,3,6,7-tetrahydro-1H-azepin-1-yl]-1-(3-hydroxyazetidin-1-yl)ethanone]
1200 nM	420 nM	CN1Cc2c(C3=CCNCC3(C)C)[nH]c3nccc(c23)-c2cc(F)ccc21 [Example 92, 5-(3,3-dimethyl-1,2,3,6-tetrahydropyridin-4-yl)-10-fluoro-7-methyl-6,7-dihydro-4H-3,4,7-triazadibenzo[cd,f]azulene]
110 nM	46 nM	CN1Cc2c(C3=CCCNC3)[nH]c3nccc(c23)-c2cc(F)ccc21 [Example 93, 10-fluoro-7-methyl-5-(1,2,5,6-tetrahydropyridin-3-yl)-6,7-dihydro-4H-3,4,7-triazadibenzo[cd,f]azulene]
91 nM	100 nM	CN1Cc2c(C3=CC4CN(CC(=O)N(C)C5CC(O)C5)CC4C3)[nH]c3nccc(c23)-c2cc(F)ccc21 (centres unmarked) [Example 94, 2-[5-(10-fluoro-7-methyl-6,7-dihydro-4H-3,4,7-triazadibenzo[cd,f]azulen-5-yl)-3,3a,4,6a-tetrahydrocyclopenta[c]pyrrol-2 (1H)-yl]-N-(3-hydroxycyclobutyl)-N-methylacetamide]
1200 nM	130 nM	CN1Cc2c(C3=CCCN(S(C)(=O)=O)C3)[nH]c3nccc(c23)-c2cc(F)ccc21 [Example 95, 10-fluoro-7-methyl-5-[1-(methylsulfonyl)-1,2,5,6-tetrahydropyridin-3-yl]-6,7-dihydro-4H-3,4,7-triazadibenzo[cd,f]azulene]
680 nM	180 nM	CNC(=O)N1CCC=C(c2[nH]c3nccc4c3c2CN(C)c2ccc(F)cc2-4)C1 [Example 96, 5-(10-fluoro-7-methyl-6,7-dihydro-4H-3,4,7-triazadibenzo[cd,f]azulen-5-yl)-N-methyl-3,6-dihydropyridine-1(2H)-carboxamide]
580 nM	420 nM	CN(C)C(=O)CN1CCC=C(c2[nH]c3nccc4c3c2CN(C)c2ccc(F)cc2-4)C1 [Example 97, 2-[5-(10-fluoro-7-methyl-6,7-dihydro-4H-3,4,7-triazadibenzo[cd,f]azulen-5-yl)-3,6-dihydropyridin-1(2H)-yl]-N,N-dimethylacetamide]

Reference: patent US9328112B2, “Tetracyclic CDK9 kinase inhibitors” (AbbVie Inc., priority 2014, dated 2016)
